Entries after “also recorded” stand apart in the source; their conditions may differ.
Assays:
p300 = p300 (Homo sapiens, UniProt Q09472); assay: In vitro acetylation assay (p300, histone 3 Lys 18 / Lys 27, western blot); assay type: biochemical; details: compound in DMSO; for EC50: read-out: H3-Lys 18 EC50; for H3-Lys 27 EC50 / H3-Lys 27 IC50: Lys 27 of histone 3
Experimental: The aim of the in vitro acetylation assay is to measure the enzymatic activity of the various compounds towards p300. Results are provided in FIG. 3A to FIG. 7B for average values of lysine residue acetylation (continuous line) and their standard error range measured in the absence of compound and DMSO, wherein “n” represents the number of replicates.
First, the drug is prepared:
Second, dilute p300 in AM1 buffer to a concentration of 40 ng/μL (final concentration in the reaction 20 ng/μL). This is accomplished by diluting 1 μL of p300 (at 0.4 μg/μL) into […] of AM1 buffer.
Third, prepare the Master Mix. Prepare the Master Mix in low protein binding tubes (ThermoFisher Cat. No. 90410), 20 μL system.
Incubate reactions at 30° C. for 30 minutes.
Incubate reactions at 30° C. for 1 hour.
Fourth, perform the western blot assay. • Add 6.7 μL of Laemmli Sample Buffer 4× (Bio-Rad Laboratories Cat. No. 161-0737) for each reaction and boil samples at 95° C. for 5 min. • Charge 10 μL for each sample in 2 Tris Glycine 4-15% gels (Bio-Rad Laboratories Cat. No. 456-1086). Running Buffer: Tris-Glycine 1× (pour in the cell up to the writing “2 gels”). • Run at 90 V for 1 hour (until the gel front reaches the green line of cell). • Semi-dry transfer with Trans-Blot® Turbo™ Blotting System from Bio-Rad Laboratories (Trans-Blot® Turbo™ RTA midi PVDF transfer kit Cat. No1704275). • Activate PVDF membrane in methanol for 5 minutes and then wet in Trans-Blot® Turbo™ transfer buffer. • Wet stacks in transfer buffer. • Transfer at 23 V 1.3 A for 7 minutes. • Blocking buffer: 5% Non-Fat milk in TBST (tween 0.1%) 1 hour at room temperature. • Cut the membranes to get Ac-His 3 at 17 kDa and p300 at 300 kDa. • Incubate with primary antibodies overnight at 4° C. • The day after, make 3 washes in TBST (Tween 0.1%) of 10 minutes. • Incubate with secondary antibody at room temperature for 1 hour. • Make 3 washes in TBST (Tween 0.1%) of 5 minutes. • Incubate membranes with ECL (SuperSignal West Dura Extended Duration Substrate from ThermoFisher) for 5 minutes at room temperature. • Acquire the image with ChemiDoc Odyssey Fc 2 minutes.
To detect total H3 (loading control), strip the membranes with Restore™ Western Blot Stripping Buffer according to the manufacturer protocol.
Various compounds were tested for enzymatic activity with respect to Lys 18 and Lys 27 of histone 3. EC50 is indicated for activators and IC50 for inhibitors respectively.

[1] = Stability in human liver microsomes; assay type: in vitro ADME; details: both sexes
Experimental: Compounds were tested for stability in human liver microsomes.
Experimental Procedure • Mixed-gender human liver microsomes (Lot #1210347) were purchased from XenoTech. The reaction mixture, minus NADPH, was prepared as described below. The test article was added into the reaction mixture at a final concentration of 1 μM. The control compound, testosterone, was run simultaneously with the test articles in a separate reaction. An aliquot of the reaction mixture (without cofactor) was equilibrated in a shaking water bath at 37° C. for 3 minutes. The reaction was initiated by the addition of the cofactor, and the mixture was incubated in a shaking water bath at 37° C. Aliquots (100 μL) were withdrawn at 0, 10, 20, 30, and 60 minutes. Test article and testosterone samples were immediately combined with 400 μL of ice-cold 50/50 acetonitrile (ACN)/H2O containing 0.1% formic acid and internal standard to terminate the reaction. […] Half-lives and clearance were calculated using GraphPad software, fitting to a single-phase exponential decay equation. […]
Note (a): When the calculated half-life is longer than the duration of the experiment, the half-life is expressed as being greater than the longest incubation time. Note (b): Intrinsic clearance (CLint) was calculated based on CLint=k/P, where k is the elimination constant and P is the protein concentration in the incubation.

[2] = tested on: hippocampal slices from WT mice perfused with oTau; assay: oTau-induced LTP deficit in hippocampal slices
Description: against tau induced synaptic dysfunction. Oligomeric tau caused a defect of LTP. YF2 was applied to hippocampal slices either alone or concurrently with oligomeric tau. […] FIG. 8 is a graph illustrating that YF2 rescues oTau-induced LTP deficits. LTP was impaired in hippocampal slices from WT mice perfused with oTau. The concurrent treatment with YF2 and oTau reestablished normal LTP. There was no impairment in slices treated with YF2 or vehicle. The horizontal solid bar represents oTau perfusion while the horizontal dashed bar represents drug treatment. The three arrows correspond to the theta-burst stimulation. Two-Way ANOVA Vehicle vs. oTau: F(1, 21)=21.32, p=0.0001; Vehicle vs. YF2: F(1, 21)=0.200, p=0.6593; Vehicle vs. YF2+oTau: F(1, 22)=0.3455, p=0.563; YF2 vs. oTau: F(1, 22)=13.72, p=0.0012; YF2 vs. YF2+oTau: F(1, 23)=0.00043, p=0.984; YF2+oTau vs. oTau: F(1, 23)=31.52, p<0.0001.

[3] = tested on: mice administered with oTau; assay: Contextual fear memory; assay type: in vivo; details: YF2 plus oTau vs oTau, 24 hrs after the electric shock
Description: A statistical significant difference is visible when comparing all groups during testing for contextual fear memory at 24 hrs after the electric shock (ANOVA among all groups: F(3, 53)=3.051 p=0.0364).

[4] = tested on: mice administered with oTau; assay: 2 day radial arm water maze (RAWM), spatial short-term memory; assay type: in vivo; details: oTau 500 nM, YF2 5 mg/kg
Experimental: Oligomeric tau caused a defect of spatial memory and associative memory. YF2 was injected in mice either alone or concurrently with oligomeric tau. The compound rescued the oligomeric tau induced defect in memory. […] The performance in the RAWM was impaired in mice administered with oTau (500 nM). […] The performance was not impaired when mice were treated with only YF2 or vehicle.

[5] = Lys 18 of histone 3, EC50 for activators

p300, sequence (Q09472 whole entry, species assumed): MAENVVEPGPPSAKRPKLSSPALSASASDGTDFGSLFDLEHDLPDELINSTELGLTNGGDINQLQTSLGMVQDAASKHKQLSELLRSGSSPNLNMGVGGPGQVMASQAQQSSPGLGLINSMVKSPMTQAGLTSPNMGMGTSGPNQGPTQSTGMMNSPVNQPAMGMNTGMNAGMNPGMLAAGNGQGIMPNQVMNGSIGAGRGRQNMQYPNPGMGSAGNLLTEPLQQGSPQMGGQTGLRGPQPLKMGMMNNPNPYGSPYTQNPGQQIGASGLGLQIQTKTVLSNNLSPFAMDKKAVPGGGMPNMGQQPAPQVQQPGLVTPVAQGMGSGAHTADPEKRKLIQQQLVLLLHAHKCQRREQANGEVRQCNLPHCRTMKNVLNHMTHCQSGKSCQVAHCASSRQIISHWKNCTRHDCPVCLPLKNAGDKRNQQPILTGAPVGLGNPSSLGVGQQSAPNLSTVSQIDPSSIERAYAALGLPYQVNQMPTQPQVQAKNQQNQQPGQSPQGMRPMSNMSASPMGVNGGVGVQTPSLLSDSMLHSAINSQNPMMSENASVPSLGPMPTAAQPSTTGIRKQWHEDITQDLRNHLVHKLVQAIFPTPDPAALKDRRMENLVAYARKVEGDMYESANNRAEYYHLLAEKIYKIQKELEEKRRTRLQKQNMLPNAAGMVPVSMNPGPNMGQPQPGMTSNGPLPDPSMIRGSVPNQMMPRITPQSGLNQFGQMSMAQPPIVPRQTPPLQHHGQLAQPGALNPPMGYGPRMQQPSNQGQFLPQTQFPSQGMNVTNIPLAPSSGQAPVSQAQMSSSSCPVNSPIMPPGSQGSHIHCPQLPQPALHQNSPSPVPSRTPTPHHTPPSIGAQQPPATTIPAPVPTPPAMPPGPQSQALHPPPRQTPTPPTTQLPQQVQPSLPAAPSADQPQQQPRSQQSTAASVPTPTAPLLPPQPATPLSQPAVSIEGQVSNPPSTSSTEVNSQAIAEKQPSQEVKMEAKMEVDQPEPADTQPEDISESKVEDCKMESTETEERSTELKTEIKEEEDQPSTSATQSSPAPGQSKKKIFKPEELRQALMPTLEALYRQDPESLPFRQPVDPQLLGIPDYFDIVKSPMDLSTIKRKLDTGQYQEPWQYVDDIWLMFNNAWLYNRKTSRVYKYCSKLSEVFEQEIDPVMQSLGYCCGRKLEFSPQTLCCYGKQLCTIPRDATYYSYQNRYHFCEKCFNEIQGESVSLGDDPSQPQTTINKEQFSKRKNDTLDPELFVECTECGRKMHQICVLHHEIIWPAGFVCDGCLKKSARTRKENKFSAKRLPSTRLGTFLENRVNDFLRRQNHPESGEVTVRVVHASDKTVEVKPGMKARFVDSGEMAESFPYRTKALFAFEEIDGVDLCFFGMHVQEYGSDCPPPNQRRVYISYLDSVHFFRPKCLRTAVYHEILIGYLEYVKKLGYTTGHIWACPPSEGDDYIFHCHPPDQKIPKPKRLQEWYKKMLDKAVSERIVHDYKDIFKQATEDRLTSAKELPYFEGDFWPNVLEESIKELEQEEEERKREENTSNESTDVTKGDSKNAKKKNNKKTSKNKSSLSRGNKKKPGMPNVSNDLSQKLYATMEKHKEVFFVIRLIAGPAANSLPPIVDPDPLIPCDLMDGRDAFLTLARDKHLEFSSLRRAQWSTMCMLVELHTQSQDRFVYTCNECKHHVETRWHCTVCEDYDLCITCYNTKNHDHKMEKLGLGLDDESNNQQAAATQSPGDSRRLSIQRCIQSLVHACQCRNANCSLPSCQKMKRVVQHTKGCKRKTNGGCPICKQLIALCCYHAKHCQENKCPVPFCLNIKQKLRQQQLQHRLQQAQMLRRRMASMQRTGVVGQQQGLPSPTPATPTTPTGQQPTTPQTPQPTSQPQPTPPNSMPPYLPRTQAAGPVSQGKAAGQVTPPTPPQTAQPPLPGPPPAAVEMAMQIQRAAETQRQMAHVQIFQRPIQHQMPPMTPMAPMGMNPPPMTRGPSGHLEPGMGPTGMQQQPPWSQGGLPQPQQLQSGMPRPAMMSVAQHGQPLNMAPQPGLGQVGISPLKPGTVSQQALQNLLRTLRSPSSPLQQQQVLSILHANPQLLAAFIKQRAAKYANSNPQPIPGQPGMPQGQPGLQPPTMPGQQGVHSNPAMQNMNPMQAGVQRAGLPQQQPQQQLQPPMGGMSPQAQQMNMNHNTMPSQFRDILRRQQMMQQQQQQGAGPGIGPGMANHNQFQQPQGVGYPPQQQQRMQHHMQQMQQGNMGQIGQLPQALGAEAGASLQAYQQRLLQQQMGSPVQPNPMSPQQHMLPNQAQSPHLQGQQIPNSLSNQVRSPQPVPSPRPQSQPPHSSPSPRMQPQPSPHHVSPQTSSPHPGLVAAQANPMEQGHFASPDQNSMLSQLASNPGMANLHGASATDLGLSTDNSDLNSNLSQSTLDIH

SMILES: CCOc1cccc(OCCN2CCOCC2)c1C(C)Nc1ccc(O)c(C(F)(F)F)c1 (centres unmarked) [JF2]
- EC50 (p300; [5]): 138 nM
- H3-Lys 27 EC50 (p300; EC50 for activators): NO ACTIVITY
- H3-Lys 27 IC50 (p300; IC50 for inhibitors): NO ACTIVITY

SMILES: FC(F)(F)c1cc(N2COc3ccccc3C2)ccc1Cl [JF17]
- EC50 (p300; [5]): 103 nM

SMILES: CN(C)CCOc1cccc2c1C(=O)N(c1ccc(Cl)c(C(F)(F)F)c1)C2=O [JF19]
- H3-Lys 18 EC50 (p300; [5]): NO ACTIVITY
- H3-Lys 18 IC50 (p300; Lys 18 of histone 3, IC50 for inhibitors): NO ACTIVITY
- H3-Lys 27 EC50 (p300; EC50 for activators): NO ACTIVITY
- H3-Lys 27 IC50 (p300; IC50 for inhibitors): NO ACTIVITY

SMILES: C[C@]12CC[C@H]3[C@@H](CCC4=CC(=O)CC[C@@]43C)[C@@H]1CC[C@@H]2O [Testosterone, testosterone]
- half-life at 1 μM ([1]; pH 7.4, 1 μM, single-phase exponential decay fit): 40.6 min
- microsomal CLint at 1 μM ([1]; pH 7.4, CLint=k/P): 34.1 µL/min/mg

SMILES: CCOc1cccc(OCCN(C)C)c1C(=O)Nc1ccc(Cl)c(C(F)(F)F)c1 [YF2]
- LTP with compound alone ([2]; hippocampal slices treated with YF2 alone): no impairment
- effect on oligomeric tau induced defect in long-term potentiation ([2]; hippocampal slices, concurrent treatment with YF2 and oTau): rescued the oligomeric tau induced defect in long-term potentiation; also recorded: rescues oligomeric-Tau (oTau)-induced LTP deficits
- contextual fear memory (freezing), oTau-induced deficit [3]: rescues oTau-induced deficit in contextual fear memory; also recorded: rescues oTau-induced defects in contextual fear memory
- RAWM performance, oTau-induced deficit [4]: rescued the deficit; also recorded: rescues oTau-induced defects

Reference: patent US20220125748A1, “HISTONE ACETYLTRANSFERASE (HAT) REGULATORS AND USES THEREOF” (The Trustees of Columbia University in the City of New York, priority 2019, published 2022)
